These results are taken from patent publication US10976310B2, “Ligand identification by co-fractionation” (MAX-PLANCK-GESELLSCHAFT ZUR FÖRDERUNG DER WISSENSCHAFTEN …, priority 2016, dated 2021).

Like-named read-outs stand apart in the source and are kept apart here. Peptide text beside a SMILES is read from it.

One assay concerns the target T1, Rbp47b (Arabidopsis thaliana, UniProt Q0WW84).
T1 sequence (Q0WW84 1-435): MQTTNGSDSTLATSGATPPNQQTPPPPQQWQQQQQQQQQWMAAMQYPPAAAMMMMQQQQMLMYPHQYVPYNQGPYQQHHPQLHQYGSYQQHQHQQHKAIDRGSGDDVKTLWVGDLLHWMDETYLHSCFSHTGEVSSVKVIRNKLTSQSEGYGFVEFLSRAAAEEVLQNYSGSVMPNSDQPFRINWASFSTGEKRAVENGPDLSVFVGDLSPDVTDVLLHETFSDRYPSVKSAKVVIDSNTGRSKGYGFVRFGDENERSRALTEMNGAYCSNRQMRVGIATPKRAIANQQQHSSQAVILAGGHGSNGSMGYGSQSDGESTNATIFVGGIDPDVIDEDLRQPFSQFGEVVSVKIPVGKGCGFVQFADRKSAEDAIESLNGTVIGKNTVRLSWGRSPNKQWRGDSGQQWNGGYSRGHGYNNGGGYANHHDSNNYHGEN
Nature of the assay: MST measurement of ligand binding to recombinant Rbp47b. The source says:
We therefore attempted to determine the in vitro binding affinity biophysically using micro-scale thermophoresis (MST) (Jerabek-Willemsen et al. (2011) Molecular interaction studies using microscale thermophoresis. Assay Drug Dev Technol 9: 342-353). MST exploits the effect of size, charge, and hydration shell on the movement of molecules in a temperature gradient. Complex formation resulting in alteration of at least one of the three parameters leads to differential movement, from which the binding affinity can be determined. For the purpose of the MST experiment, Rbp47b was expressed in and purified from E. coli. […] The measured Kd value also corresponds to the ˜20 μM concentration of 2′,3′-cAMP measured in the native Arabidopsis lysate (FIG. 11B).
TIA1 protein was purchased from Origene (Herford, Germany). Rbp47b was cloned as a C-terminal GFP fusion (to increase protein solubility) into the E. coli expression vector pDEST14 containing His6-tag at the N-terminal of the Gateway (Karlsruhe, Germany) cassette. […]
Next day, cells were disrupted with an Avestin (Mannheim, Germany) EmulsiFlex C3 homogenizer and the protein was purified using imidazole-gradient purification in Ni-NTA agarose (Qiagen 34080, Hilden, Germany). […] Protein purity was assessed by SDS-PAGE and protein identification was done using western blot using anti-His6 antibodies. […]

A further assay concerns the target T2, TIA1 (Homo sapiens, UniProt P31483).
T2 construct: purchased Origene (Herford, Germany)
T2 sequence (P31483 1-386): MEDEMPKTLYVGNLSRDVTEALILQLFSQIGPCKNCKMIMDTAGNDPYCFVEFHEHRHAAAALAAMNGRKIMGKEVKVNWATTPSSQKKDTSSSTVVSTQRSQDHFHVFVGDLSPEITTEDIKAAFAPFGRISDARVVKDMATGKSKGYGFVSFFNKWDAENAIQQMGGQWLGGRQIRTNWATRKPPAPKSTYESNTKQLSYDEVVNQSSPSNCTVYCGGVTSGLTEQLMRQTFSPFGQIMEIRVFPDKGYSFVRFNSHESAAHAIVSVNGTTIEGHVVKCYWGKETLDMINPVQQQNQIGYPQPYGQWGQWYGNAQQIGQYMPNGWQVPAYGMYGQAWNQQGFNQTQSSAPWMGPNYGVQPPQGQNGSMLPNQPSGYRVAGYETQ
Kind of assay: MST measurement of ligand binding to recombinant TIA1. The protocol:
Expecting such a basic role of 2′,3′-cAMP to be conserved, we performed similar analysis with TIA1, the human functional homolog of Rbp47b. TIA1 was labeled and its interaction with 2′,3′-cAMP was determined using MST.
TIA1 protein was purchased from Origene (Herford, Germany). Rbp47b was cloned as a C-terminal GFP fusion (to increase protein solubility) into the E. coli expression vector pDEST14 containing His6-tag at the N-terminal of the Gateway (Karlsruhe, Germany) cassette. Rosetta cells expressing His6-Rbp47b-GFP were grown at 28° C. overnight and next day were moved to Terrific Broth medium supplied with 1% sucrose and relevant antibiotics. Cultures at OD 0.4 were induced by addition of 0.1 mM IPTG and transferred to 16° C. for overnight incubation.
MST measurements were performed using a Monolith NT.115 instrument (NanoTemper, München, Germany). Capillaries were loaded into the instrument as sets of 13-16 point ligand titrations. Proteins (Rb47b and TIA1) were labeled in phosphate buffer (PBS) using Monolith™ protein labeling kit RED-NHS (amine reactive; MO-L001) according to the manufacturers instruction. Excitation was optimized by varying the LED power to yield emission intensities above 200 AU, corresponding to 10-50 nM labeled protein. Monolith power was set to 60%. Ligands [2′,3′-cAMP (Sigma A9376)] and [3′,5′-cAMP (Sigma A6885)] were dissolved in PBS. […]

A further assay addresses T3, Rbp47b-TAP protein (Arabidopsis thaliana, UniProt Q0WW84).
T3 construct: expressed in transfected cells; host or cells: Arabidopsis cell suspension culture, Agrobacterium-transformed
T3 sequence (Q0WW84 1-435): T1 sequence (Q0WW84 1-435)
Kind of assay: Cellular thermal shift assay (CETSA) in native Arabidopsis lysate. Format: binding. The following applies: analogous experiment, native protein lysate. The protocol:
To this end we set out to identify the binding protein partners of 2′,3′-cAMP by applying affinity purification (AP) using agarose beads, with 2′,3′-cAMP linked via the NH2 group of the purine ring. After incubation of the beads with total soluble-protein extracts from A. thaliana cell suspension cultures (cf. Materials and Methods) sequential washings with ADP, GDP, 5′-AMP, and finally 2′,3′-cAMP were performed, and the proteins eluting in the different washings were analyzed by LC-MS/MS proteomics. Proteins eluting from the agarose beads exclusively with 2′,3′-cAMP but absent in any of the other eluents (ADP, GDP, or 5′-AMP; FIG. 10A) were defined as 2′,3′-cAMP-binding. Applying this stringent criterion only one protein remained: the polyadenylate-binding protein Rbp47b. We reasoned that the putative formation of Rbp47b-2′,3′-cAMP complexes in vivo should be reflected by largely overlapping elution profiles of the two components in a size-exclusion experiment (SEC), as was indeed the case (FIG. 10B). To obtain further and independent evidence for the formation of a complex between Rbp47b and 2′,3′-cAMP, we performed a cellular thermal shift assay (CETSA) (Franken et al. (2015) Thermal proteome profiling for unbiased identification of direct and indirect drug targets using multiplexed quantitative mass spectrometry. Nat Protoc 10: 1567-1593). CESTA is a method used in the drug research to verify ligand-receptor binding in the native cellular lysate, based on the observation that presence of the ligand changes thermal stability of the protein receptor. Herein, we adapted the protocol to be suitable for the plant material and an endogenous […] metabolite. We used Arabidopsis cells expressing a tagged version of the Rbp47b, so that Rbp47b level could be easily detected with the anti-tag antibody. […] Taken together, three independent experimental approaches (AP, SEC, and CETSA) provide evidence for the binding of 2′,3′-cAMP to Rbp47b in the native Arabidopsis lysate. […]

Assay [1] deals with T4, gibberellin receptor GID1 (Oryza sativa subsp. japonica, UniProt Q6L545).
T4 sequence (Q6L545 1-354): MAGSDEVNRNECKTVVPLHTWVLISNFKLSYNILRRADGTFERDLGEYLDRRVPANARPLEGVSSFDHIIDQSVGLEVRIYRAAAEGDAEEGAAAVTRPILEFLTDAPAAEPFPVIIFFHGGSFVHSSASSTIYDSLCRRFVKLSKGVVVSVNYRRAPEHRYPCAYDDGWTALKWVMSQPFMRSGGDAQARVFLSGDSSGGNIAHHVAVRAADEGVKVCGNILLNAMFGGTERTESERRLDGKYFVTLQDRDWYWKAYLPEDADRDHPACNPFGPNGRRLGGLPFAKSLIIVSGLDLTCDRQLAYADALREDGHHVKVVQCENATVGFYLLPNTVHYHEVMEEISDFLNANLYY
The following applies: Ueguchi-Tanaka et al. (2005); read-out: Kd of binding to GID1; cited from earlier work.

The target in a further assay is T5, FBA6 (Arabidopsis thaliana, UniProt Q9SJQ9).
T5 construct: made in house; host or cells: E. coli
T5 sequence (Q9SJQ9 1-358): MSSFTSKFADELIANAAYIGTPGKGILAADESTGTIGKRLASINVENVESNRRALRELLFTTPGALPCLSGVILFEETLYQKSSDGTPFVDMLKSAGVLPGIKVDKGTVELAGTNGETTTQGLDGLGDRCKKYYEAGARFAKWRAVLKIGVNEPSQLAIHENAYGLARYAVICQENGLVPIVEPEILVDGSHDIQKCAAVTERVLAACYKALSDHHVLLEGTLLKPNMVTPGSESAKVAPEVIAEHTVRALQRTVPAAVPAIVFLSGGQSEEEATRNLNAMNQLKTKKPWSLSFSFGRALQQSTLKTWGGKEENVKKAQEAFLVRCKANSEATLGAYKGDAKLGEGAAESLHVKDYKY
Nature of the assay: Microscale thermophoresis (MST) binding to FBA6 expressed and purified from E. coli. The source says:
FBA6 protein was expressed and purified from E. coli. MST uses the intristic tendency of all the biological molecules to move in the temperature gradient. This movement is dependent on the molecule size, charge and hydration shell. Complex formation affects at least one of the three parameters changing the movement and indicating binding event. […] The results obtained point to both strong and specific interaction.
Background: MST reads how a fluorescent partner responds to local heating, with and without ligand.

Assay [2] concerns the target T6, Methylthioribose-1-phosphate isomerase (MTR-1-P) (Arabidopsis thaliana, UniProt Q9ZUG4).
T6 sequence (Q9ZUG4 1-374): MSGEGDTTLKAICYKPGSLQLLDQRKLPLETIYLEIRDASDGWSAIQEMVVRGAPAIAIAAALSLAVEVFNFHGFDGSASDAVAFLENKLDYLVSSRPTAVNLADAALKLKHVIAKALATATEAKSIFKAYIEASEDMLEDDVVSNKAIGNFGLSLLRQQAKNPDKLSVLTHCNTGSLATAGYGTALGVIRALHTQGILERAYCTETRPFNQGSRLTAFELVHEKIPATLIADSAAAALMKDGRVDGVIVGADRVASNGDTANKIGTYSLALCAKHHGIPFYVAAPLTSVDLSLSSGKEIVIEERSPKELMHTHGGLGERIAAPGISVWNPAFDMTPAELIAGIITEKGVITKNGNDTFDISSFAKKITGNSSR
Nature of the assay: Microscale thermophoresis (MST) assay, MTA-MTR-1-P interaction. Format: binding. The following applies: mean±SD, n=3.

Assay [3] deals with T7, 3-methyl-2 oxobutanoate hydroxymethyl-transferase 1 (KPHMT1) (Arabidopsis thaliana, UniProt O82357).
T7 sequence (O82357 49-347): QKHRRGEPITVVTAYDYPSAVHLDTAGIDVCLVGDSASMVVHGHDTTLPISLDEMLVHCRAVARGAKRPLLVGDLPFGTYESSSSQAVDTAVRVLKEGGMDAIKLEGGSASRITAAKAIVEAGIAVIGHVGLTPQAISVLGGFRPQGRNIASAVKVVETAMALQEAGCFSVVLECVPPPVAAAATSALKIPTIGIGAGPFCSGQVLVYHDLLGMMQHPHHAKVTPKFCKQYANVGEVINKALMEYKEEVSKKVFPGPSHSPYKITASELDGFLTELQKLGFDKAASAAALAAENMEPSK
Nature of the assay: Microscale thermophoresis (MST) assay, Panthotenate-KPHMT1 interaction. Format: binding. As to conditions: mean±SD, n=3. The protocol:
B) Panthotenate-KPHMT1 interaction was tested by Microscale thermophoresis (MST) assay. […] Data are mean±SD, n=3.

Regarding `Nc1ncnc2c1ncn2[C@@H]1O[C@@H]2COP(=O)(O)O[C@H]2[C@H]1O` [3′,5′-cAMP, reference compound], the “binding to Rbp47b (in words)” value at Rbp47b is “did not observe any binding”. Besides, at TIA1, the “binding to TIA1 (in words)” value is on record as “not”. Moreover, the “effect on thermal stability of Rbp47b (in words)” value at Rbp47b-TAP protein was “No such effect was observed”.

One may read the Kd as the constant that tells how readily two partners part at equilibrium. Consider `CC1C[C@]23C[C@H]1CCC2[C@]12CC[C@H](O)[C@](C)(C(=O)O1)[C@H]2[C@@H]3C(=O)O` (stereo partly drawn) [16,17-dihydro-GA4], for which the dissociation constant (Kd) in assay [1] was 1400 nM.

`NCC(=O)N1CCC[C@H]1C(=O)O` [Gly-Pro, L-Gly-L-Pro] (H-Gly-Pro-OH): the Kd at FBA6 is around 200 nM.

As to `CSC[C@H]1O[C@@H](n2cnc3c(N)ncnc32)[C@H](O)[C@@H]1O` [MTA, Methylthioadenosine], the Kd in assay [2] came out at 2700 nM.

Take `CC(C)(CO)[C@@H](O)C(=O)NCCC(=O)O` [Panthotenate, Pantothenic acid]: the Kd in assay [3] amounted to 367000 nM.

Consider `O=C(O)CNC(=O)[C@@H]1CCCN1` [Pro-Gly] (H-Pro-Gly-OH), for which the “binding to FBA6 (in words)” value on FBA6 (MST) is recorded as “not”.

On to dihydroxyacetone phosphate [DHAP], for which the Kd at FBA6 (MST, FBA6 purified from E. coli, read-out: Kd of binding to FBA6) is around 200 nM.
